This is an account of results in publication PMC5563081, “Modulating Protein-Protein Interactions of the Mitotic Polo-like Kinases to Target Mutant KRAS” (Cell Chemical Biology, 2017).

Like-named read-outs stand apart in the source and are kept apart here.

The test system of one assay is Panc-1. Description: Cell viability (SRB), Panc-1. The settings on record: Panc-1, c-MET inhibitor alone, SRB 72 h, Figure S5C, read-out: EC50, % survival. It is filed as cell-based, human. As to the method: SW48 Parental, SW48 G12D, Panc-1, HPAF-II, Panc 02.03 and Panc 05.04 cell lines were seeded overnight at 5000 cells per well in a 96 well plate in recommended media (ATCC). Compounds were added the following day and viability was measured at 72h using the sulforhodamine B (SRB) colorimetric assay as follows. Cells were fixed by replacing media with 1% v/v Trichloroacetic Acid (TCA) (Sigma-Aldrich) at 4°C and incubated for 1h also at 4°C. Wells were washed thoroughly with copious amounts of deionised water before staining with Sulforhodamine B (SRB) (Sigma-Aldrich) solution (0.057% w/v in 1% v/v Acetic Acid (VWR)) for 30 min. Stain was aspirated and wells washed with several changes of 1% v/v Acetic Acid until unbound stain was removed, before air-drying. Bound stain was solubilized with 100μl / well 10mM Tris (pH 8.0) (Trizma Base (121.1) Sigma-Aldrich) with agitation for 10 min. Fluorescence intensity was recorded at Ex540nm / Em590nm using a BMG Pherastar Plus plate reader ([Vichai and Kirtikara, 2006]).
Pancreatic organoids were extracted and cultured as detailed above ([Boj et al., 2015]). In brief, pancreatic organoids were seeded at 600 cells per well in a 96 well plate and allowed to grow for 7 days with media replenishment on the 3rd day. Full-grown organoids were then treated with compounds for 72h and viability determined using CellTitre Glo 3D assay (Promega). For viability assays with c-MET siRNA, cells were reverse transfected in a 6 cm dish using Dharmafect 1 (GE Dharmacon) per manufacturer’s instructions. On the following day, cells were trypsinised and plated onto 96 well plates or 6 well plates. The 96 well plates were treated with a dose range of compounds or DMSO, and viability was determined via SRB colorimetric assay. Cells in the 6 well plates were collected at the end of experiment to corroborate knockdown of c-MET by Western blotting.
Cells were reverse-transfected with 50nM (SW48 parental, SW48 KRAS G12D and Panc-1) or 25nM (HeLa Flp-In T-REx parental cells) siRNA using Dharmafect (GE Dharmacon) as manufacturer’s recommendations. Where transfected cells were subsequently treated with compounds, the cells were allowed to settle overnight and then treated with compound at the indicated concentration the following day. Viability was assessed after 72 hrs, with the SRB colorimetric assay. Knockdown efficiencies were determined by Western blot or RT-qPCR. Oligos against the following target sequences were used. c-MET (Qiagen): […], […], […]. PLK1 (Qiagen): […]. PLK2 (SMARTpool; Dharmacon): ACACAGAAGGAGAACGAUA, CAUCAAUGAGGAUAGGAUA, CUGCCUAGUGUUACUGAUA, ACAAAGUCUACGCCGCAAA. PLK3 (SMARTpool; Dharmacon): GCGAGAAGAUCCUAAAUGA, GCAAGUGGGUUGACUACUC, GCACAUCCGUUGGCCAUCA, GACCUCAAGUUGGGAAAUU. PLK4 (Qiagen): […].

Assay [1] has as its target T1, NanoLuc-PLK1 fusion protein (Homo sapiens, UniProt P53350).
T1 construct: NanoLuc fused to the N-termini of full-length human PLK1, PLK2, PLK3, PLK4 or p38α MAPK; expressed in transfected cells; host or cells: HeLa, transient, digitonin-permeabilised
As to the kind of experiment: NanoLuc thermal shift assay. It is filed as cell-based. The settings on record: compound at 100 μM. The procedure: (§1) HeLa cells were transfected with plasmids encoding NanoLuc fused to the N-termini of full-length human PLK1, PLK2, PLK3, PLK4 or p38α MAPK. Twenty-four h after transfection, the thermal stability of the fusion proteins was tested using a modified version of the assay protocol supplied by Promega. Briefly, cells were harvested by tyrpsinisation and centrifugation, counted, and resuspended to 200,000 cells/ml in 3mls of serum-free OptiMEM media. Cells were then permeabilised using with 50ug/ml digitonin in DMSO for 5 min and incubated with test compounds at 100uM, plus protease inhibitor cocktail (Promega G6521), in a final concentration of 5% DMSO for 1 h at 37°C. After incubation, 100 μl/well of cells were aliquoted into a 96-well, thin-walled PCR plate and then heated for 3 minutes using a pre-warmed MJ Tetrad DNA Engine set to run a temperature gradient of 42 to 66°C. The plates were then cooled to room temperature for 10 min, and then 80μl of each sample was transferred to a white-walled 96-well Nunc plate before NanoBRET™ NanoGlo Substrate diluted in Opti-MEM was added. NanoLuc enzyme activity was read out within 10 min using a BMG Clariostar plate reader.
(§2) Nanoluciferase enzyme activity of PLK1- or PLK4-Nanoluc fusion protein was analysed using GraphPad Prism. Data were normalised as follows: (treatment A RLU value at X°C temp/treatment A RLU value at 42°C temp) x 100. Using the Boltzmann sigmoidal equation, a curve was then fitted to the normalised data. From this non-linear fit, a V50 value was generated, which in this context represents the aggregation onset temperature (Tagg), at which 50% of the PLK1- or PLK4-Nanoluc fusion protein has aggregated.

Assay [2] has as its target T2, NanoLuc-PLK4 fusion protein (Homo sapiens, UniProt O00444).
T2 construct: NanoLuc fused to the N-termini of full-length human PLK1, PLK2, PLK3, PLK4 or p38α MAPK; expressed in transfected cells; host or cells: HeLa, transient, digitonin-permeabilised
T2 sequence (O00444 1-970): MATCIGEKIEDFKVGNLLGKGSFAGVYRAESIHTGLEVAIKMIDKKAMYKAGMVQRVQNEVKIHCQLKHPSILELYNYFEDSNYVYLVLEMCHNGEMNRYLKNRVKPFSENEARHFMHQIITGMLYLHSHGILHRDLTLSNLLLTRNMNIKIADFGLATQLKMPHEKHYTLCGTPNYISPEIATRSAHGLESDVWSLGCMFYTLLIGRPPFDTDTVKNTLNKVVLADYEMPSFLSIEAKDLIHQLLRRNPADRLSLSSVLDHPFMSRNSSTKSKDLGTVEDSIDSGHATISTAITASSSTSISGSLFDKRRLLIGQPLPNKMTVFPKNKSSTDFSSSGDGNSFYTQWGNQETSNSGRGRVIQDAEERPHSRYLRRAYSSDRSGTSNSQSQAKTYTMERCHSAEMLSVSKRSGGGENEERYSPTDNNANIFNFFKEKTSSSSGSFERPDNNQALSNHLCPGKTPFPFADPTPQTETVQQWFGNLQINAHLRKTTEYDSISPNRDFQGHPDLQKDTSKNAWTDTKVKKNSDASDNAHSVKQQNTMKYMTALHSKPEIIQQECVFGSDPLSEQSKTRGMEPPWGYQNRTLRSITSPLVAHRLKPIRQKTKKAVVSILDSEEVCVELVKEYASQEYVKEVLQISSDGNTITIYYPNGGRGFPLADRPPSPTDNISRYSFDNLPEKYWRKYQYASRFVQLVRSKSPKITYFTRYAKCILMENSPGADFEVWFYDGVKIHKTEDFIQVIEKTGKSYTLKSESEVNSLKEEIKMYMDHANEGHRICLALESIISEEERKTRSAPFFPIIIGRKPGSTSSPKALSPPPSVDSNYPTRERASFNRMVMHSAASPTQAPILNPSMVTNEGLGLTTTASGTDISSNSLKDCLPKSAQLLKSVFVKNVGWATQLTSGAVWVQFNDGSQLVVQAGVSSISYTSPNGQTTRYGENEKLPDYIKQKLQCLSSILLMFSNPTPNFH
As to the kind of experiment: NanoLuc thermal shift assay. It counts as cell-based. The settings on record: compound at 100 μM. The procedure:
as §1, §2

A further assay deals with HeLa cells. Description: Mitotic index assay in HeLa cells. It is filed as cell-based, human. The settings on record: for EC50: Homo sapiens, HeLa, Figure 5A, read-out: MI EC50 (cellular assay for mitotic arrest). The procedure:
Cells were plated at 10 000/well in 96-well plates and incubated overnight. The following day compound stocks in DMSO were diluted in medium then added to cells with a maximum final DMSO concentration on cells of 0.2%. […] Cells were permeabilised with 0.1% Triton X-100 then incubated with anti-phospho-histone H3 (Ser10) antibody (Abcam ab5176). The cells were washed with PBS then incubated with AlexaFluor 488 labelled goat anti-rabbit IgG (Invitrogen A11034) in the presence of 4ug/ml Hoechst 33342 (Invitrogen H3570). Cells were washed in PBS then imaged on an Arrayscan VTi HCS instrument (Thermo Fisher) using the Target Activation V4 Bioapplication. A user-defined threshold was applied to identify mitotic cells based on the intensity of phospho-histone H3 staining.

For the next assay, the system named is HCT116 KRAS G13D cells. Description: Development of drug resistance under continuous treatment. The settings on record: continuous treatment at 5x GI50. It counts as cell-based, human. As to the method: HCT116 wild-type cells (Horizon Discovery Ltd.) cultured in McCoy's 5A (Life Technologies #26600) medium supplemented with 10% Foetal Calf Serum (Life Technologies #10270) were treated on three occasions with titrations of the PLK1 ATP-competitive inhibitor BI 2536 (Selleckchem #S1109) or Poloppin in order to determine the 2.5x GI50, 3x GI50 and 5x GI50 values for each compound required to initiate the development of resistance. Cells were subsequently treated with 2.5x GI50, 3x GI50 and 5x GI50 concentrations of either compound, changing media and compound every three to four days until resistant colonies emerged or no viable cells remained. Single cell clones were isolated from cells resistant to 5x GI50 BI 2536. Equivalent experiments using 3x GI50 or 2.5x GI50 doses of Poloppin or BI2536 yielded identical results (data not shown). BI 2536-resistant clones (HCT116 BI 2536-Res. Clones) were treated with BI2536 or Poloppin, alongside drug-sensitive parental HCT116 cells (HCT116 wt), and viability was assessed after 72 h. Viability is represented as percentage survival normalised to DMSO control. […]

The test system of the next assay is HCT116 wt. As to the kind of experiment: Viability of drug-sensitive parental HCT116 cells. It is filed as cell-based. The conditions noted are these: Homo sapiens, HCT-116, 72 h. The procedure:
(§3) Viability is represented as percentage survival normalised to DMSO control. […] PCR reactions were carried out using Amplitaq Gold polymerase (Applied Biosystems N8080241) with a 25-cycle programme. […] Prepared samples were submitted for next generation sequencing using MiSeq Nano run with Nextera XT library preparation. Sequencing and subsequent bioinformatics were performed by Cambridge Genomic Services (University Of Cambridge).

The subject of assay [3] is HCT116 BI 2536-Res. Clones. Description: Viability of BI 2536-resistant HCT116 clones. It counts as cell-based, human. The settings on record: Homo sapiens, HCT-116; BI2536-Res. (Mean), 72 h; read-out: GI50. As to the method: as §3
The target of assay [4] is T3, PLK1-PBD(345-603), Polo-box domain of human Polo-like kinase 1 (human, UniProt P53350 345-603).
T3 construct: Polo-like kinase 1 (PLK1), human, Polo-box domain, residues 345-603; also called PLK1 PBD (aa345-603); PBDaa345-603; source: E. coli C41, purified (GST-Sepharose column, cleaved on column with PreScission protease, gel chromatography)
T3 sequence (P53350 345-603): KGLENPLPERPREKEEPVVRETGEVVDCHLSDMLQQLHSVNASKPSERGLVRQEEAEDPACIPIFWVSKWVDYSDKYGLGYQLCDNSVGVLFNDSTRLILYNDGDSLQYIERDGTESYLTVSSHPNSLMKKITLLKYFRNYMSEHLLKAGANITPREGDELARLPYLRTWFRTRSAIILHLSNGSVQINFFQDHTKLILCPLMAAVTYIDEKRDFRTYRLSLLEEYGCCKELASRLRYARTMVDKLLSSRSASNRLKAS
As to the kind of experiment: fluorescence polarisation; competition format: TAMRA-labelled phosphopeptide 10 nM, PBD 84 nM (2.5 ng/ul), PBS pH 7.4 plus 0.03% tween; compound and PBD incubated together at 22 C for 1 hour before the peptide was added; same procedure for PLK2 PBD with its own peptide. The conditions noted are these: both partners purified.

T1 sequence (P53350 whole entry, the tested form may be a part): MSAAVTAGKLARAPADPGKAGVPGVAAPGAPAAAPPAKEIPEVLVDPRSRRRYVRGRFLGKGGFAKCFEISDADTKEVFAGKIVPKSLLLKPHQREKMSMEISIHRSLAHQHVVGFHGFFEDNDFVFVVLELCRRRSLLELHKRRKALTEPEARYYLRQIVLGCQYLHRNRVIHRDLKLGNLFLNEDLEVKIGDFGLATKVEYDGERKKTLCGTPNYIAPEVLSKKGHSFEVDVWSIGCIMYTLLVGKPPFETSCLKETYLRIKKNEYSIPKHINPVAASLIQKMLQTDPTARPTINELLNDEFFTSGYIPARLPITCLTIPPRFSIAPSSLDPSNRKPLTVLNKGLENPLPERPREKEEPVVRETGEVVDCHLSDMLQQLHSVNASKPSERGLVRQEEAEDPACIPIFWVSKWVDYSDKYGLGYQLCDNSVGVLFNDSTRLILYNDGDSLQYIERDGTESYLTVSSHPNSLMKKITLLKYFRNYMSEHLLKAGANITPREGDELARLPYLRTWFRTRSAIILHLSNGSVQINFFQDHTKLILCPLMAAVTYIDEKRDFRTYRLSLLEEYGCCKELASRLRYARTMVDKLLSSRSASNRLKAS

For `O=C1NC(=O)C(c2cn3c4c(cccc24)CCC3)C1c1c[nH]c2ccccc12` (centres unmarked) [Tivatinib], the EC50 in the assay with Panc-1 is 1200 ± 1030 nM. On to `Cc1cc(Cl)ccc1-n1c(CCC(=O)N(C)C)ccc1-c1ccc(Br)cc1` [PB114], for which the “thermal stability of NanoLuc-PLK1” value in assay [1] is listed as “less active”. In addition, in assay [2], the “thermal stability of NanoLuc-PLK4” value is “less active”. In addition, the “EC50, mitotic index assay” value in the assay on HeLa cells (HeLa cells treated for 16 hr, Figure 5B) is “inactive”. For the molecule `CN(C)CCNC(=O)c1cccc(-c2ccc(-c3ccc(Br)cc3)n2-c2ccccc2C(F)(F)F)c1` [compound 4], the EC50 in the assay with HeLa cells stood at 580 nM. On to `CN(C)CCNC(=O)c1ccc(-c2ccc(-c3ccc(Br)cc3)n2-c2ccccc2C(F)(F)F)cc1` [compound 5], for which the concentration for a half-maximal effect (EC50) in the assay on HeLa cells worked out at 360 nM. In the case of `CC[C@@H]1C(=O)N(C)c2cnc(Nc3ccc(C(=O)NC4CCN(C)CC4)cc3OC)nc2N1C1CCCC1` [BI2536, reference compound], the “acquisition of drug resistance” value in the assay on HCT116 KRAS G13D cells is “readily acquire resistance”. For the same molecule, the results for the concentration for 50% growth inhibition (GI50) (in the assay on HCT116 wt; in assay [3]) were 8.25 nM and 30.9 nM, respectively. Regarding `COc1cc2c(Oc3ccc(NC(=O)C4(C(=O)Nc5ccc(F)cc5)CC4)cc3F)ccnc2cc1OCCCN1CCOCC1` [Foretinib], the 50% effective concentration (EC50) in the assay with Panc-1 (Homo sapiens) stood at 2600 ± 1040 nM.

B1: TAMRA-labelled consensus PLK1 PBD binding phosphopeptide, 5-TAMRA-MAGPMQS(pThreonine)PLMGAKK-acid (peptide)
peptide: MAGPMQSTPLMGAKK
modifications: not fully specified; 5-TAMRA on the N-terminus; phosphothreonine (pThreonine) after MAGPMQS, residue 8 of the letters; C-terminal acid
notes: also called TAMRA-labeled substrate peptide
As to B1, the binding result in assay [4] is on record as “binds”.
